# Read-outs that look alike come from different tables or passages of the source.
# Tests used:
# [1] = target: T1, ECL (Erythrina cristagalli lectin) (Erythrina crista-galli, UniProt P83410); details: cited from earlier work
# T1 sequence (P83410 1-239): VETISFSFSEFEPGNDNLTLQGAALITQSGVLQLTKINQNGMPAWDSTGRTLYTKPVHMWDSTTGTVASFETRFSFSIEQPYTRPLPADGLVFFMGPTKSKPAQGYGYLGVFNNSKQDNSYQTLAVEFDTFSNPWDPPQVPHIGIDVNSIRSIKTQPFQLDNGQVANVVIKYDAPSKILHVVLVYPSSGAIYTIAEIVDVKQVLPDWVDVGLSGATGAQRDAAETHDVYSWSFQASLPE
# [2] = target: T1, ECL (Erythrina cristagalli lectin); details: cited from earlier work; remark: listed apart in the source
# [3] = target: T1, ECL (Erythrina cristagalli lectin); experiment: Protein BLI inhibition; assay type: binding; details: for ΔG: binding free energy from BLI KD, standard deviations in parentheses; for affinity for ECL (result in words): BLI
# [4] = target: T1, ECL (Erythrina cristagalli lectin); details: cited from earlier work; remark: listed apart in the source
# [5] = target: T1, ECL (Erythrina cristagalli lectin); experiment: Isothermal titration calorimetry; assay type: binding; details: relative to 1
SMILES,inhibitory power relative to D-Gal (result in words) [1],ΔG [3],binding in glycan array screening of ECL [4],other results
O=C[C@@H](O)[C@H](O)[C@H](O)CO [D-Ara],poor inhibitors,,,
"OC[C@H]1OC(O)[C@H](O)[C@@H](O)[C@H]1O (stereo partly drawn) [D-Gal, reference compound]",,,,reference ΔG ([2]; ITC at 25 °C): –4.0 (<0.1) kcal/mol
CC(=O)N[C@H]1C(O)O[C@H](CO)[C@@H](O)[C@@H]1O (stereo partly drawn) [D-GlcNAc],poor inhibitors,,,
OC[C@H]1OC(O)[C@H](O)[C@@H](O)[C@@H]1O (stereo partly drawn) [D-Glc],poor inhibitors,,,
C[C@@H]1OC(O)[C@@H](O)[C@H](O)[C@@H]1O (stereo partly drawn) [L-Fuc],poor inhibitors,,,
"OC[C@H]1O[C@@H](O[C@H]2[C@H](O)[C@@H](O)[C@H](O)O[C@@H]2CO)[C@H](O)[C@@H](O)[C@H]1O [ligand 1, lactose]",,–4.83 (0.04) kcal/mol,nonbinders,reference ΔG ([2]; ITC at 25 °C): –4.8 (<0.1) kcal/mol; reference ΔG ([2]; ITC at 27 °C): –4.9 (0.2) kcal/mol
"OC[C@H]1O[C@@H](O[C@H]2[C@H](O)[C@H](O)C(O)O[C@@H]2CO)[C@H](O)[C@@H](O)[C@H]1O (stereo partly drawn) [ligand 2, epi-lactose]",,–5.08 (0.02) kcal/mol,,
"CC(=O)N[C@H]1C(O)O[C@H](CO)[C@@H](O[C@@H]2O[C@H](CO)[C@H](O)[C@H](O)[C@H]2O)[C@@H]1O (stereo partly shown) [ligand 3, N-acetyllactosamine]",,–5.66 (0.04) kcal/mol,binders,fold higher affinity of ECL [5]: about 3 fold; reference ΔG ([2]; ITC at 27 °C): –5.5 (0.1) kcal/mol
"CC(=O)N[C@H]1[C@H](O[C@H]2[C@H](O)[C@@H](NC(C)=O)C(O)O[C@@H]2CO)O[C@H](CO)[C@H](O)[C@@H]1O (stereo partly shown) [ligand 4, N,N-diacetyllactosamine]",,,binders,
"C[C@@H]1O[C@@H](O[C@H]2[C@H](O[C@H]3[C@H](O)[C@@H](O)C(O)O[C@@H]3CO)O[C@H](CO)[C@H](O)[C@@H]2O)[C@@H](O)[C@H](O)[C@@H]1O (stereo partly shown) [ligand 5, fucosylated lactose]",,–5.04 (0.06) kcal/mol,nonbinders,reference ΔG ([2]; ITC at 25 °C): –4.8 (<0.1) kcal/mol
"CC(=O)N[C@H]1C(O)O[C@H](CO)[C@@H](O[C@@H]2O[C@H](CO)[C@H](O)[C@H](O)[C@H]2O[C@@H]2O[C@@H](C)[C@@H](O)[C@@H](O)[C@@H]2O)[C@@H]1O (stereo partly shown) [ligand 6, fucosylated N-acetyllactosamine]",,–6.21 (0.14) kcal/mol,binders,
"O=C[C@H](O)[C@@H](O)[C@H](O[C@@H]1O[C@H](CO)[C@@H](O)[C@H](O)[C@H]1O)[C@H](O)CO [ligand 7, cellobiose]",,,,"affinity for ECL (result in words) [3]: Neither cellobiose (Glcβ1–4Glcβ, 7) nor maltose (Glcα1–4Glcβ, 8) shows any measurable affinity"
"OC[C@H]1O[C@H](O[C@H]2[C@H](O)[C@@H](O)[C@H](O)O[C@@H]2CO)[C@H](O)[C@@H](O)[C@@H]1O [ligand 8, maltose]",,,,"affinity for ECL (result in words) [3]: Neither cellobiose (Glcβ1–4Glcβ, 7) nor maltose (Glcα1–4Glcβ, 8) shows any measurable affinity"

# Reference: publication PMC6442460 (Journal of chemical information and modeling, 2018)
